In BindingDB's records for doi:10.1016/j.bmcl.2013.02.064 (Toronto General Research Institute, 2013):

Assay: Inhibition of FCgamma receptor in human PBMC assessed as inhibition of opsonized RBC phagocytosis incubated for 1 hr prior to RBC addition measured after 2 hrs by monocyte monolayer assay

- IC50: 100 nM
SMILES: Cc1cc(SSc2cc(C)nn2-c2ccccc2)n(-c2ccccc2)n1
